What was measured:
fleas = assay: Flea contact test using impregnated glass paper (Example XIII, FIG. 15, Table 13); format: in vivo; conditions: for Mortality of the fleas: 200 μL on glass filter paper, after twenty-four hours, 12 fleas
Description: The fatty acids used in the test were mono laurin and lauric acid, while the fatty acid esters used in the test were methyl laurate, i.e. lauric acid methyl ester and ethyl dodecanoate, i.e. lauric acid ethyl ester. Each of these compounds were dissolved in ethanol in concentrations of 0.1% and 1%, and then 200 μL (micro liters) of each solution was placed on glass filter paper (15×150 mm). After the ethanol had evaporated a paper for each concentration of each compound was put into a test tube, and 12 fleas were added per test tube and the top of the test tube was covered. Whether the fleas were alive or dead at was measured after 2 and twenty-four hours. […] Further results are shown below in Table 13.

ctenocephalides felis = assay: Efficacy of fatty acid methyl esters in water or acetone on glass paper (Table 14); format: in vivo
Description: Further results are shown below in Table 14, regarding the efficacy of various fatty acid methyl and ester esters against fleas (ctenocephalides felis).

SMILES | 5 Hours Alive (ctenocephalides felis; 0.1% in Acetone) | 5 Hours Dead (ctenocephalides felis; 0.1% in Acetone) | 2 hours Alive (ctenocephalides felis; 0.1% in Acetone) | 2 hours Dead (ctenocephalides felis; 0.1% in Acetone) | 20 hours Alive (ctenocephalides felis; 0.1% in Acetone) | 20 hours Dead (ctenocephalides felis; 0.1% in Acetone) | 5 Hours Alive (ctenocephalides felis; 0.1% in Water) | 5 Hours Dead (ctenocephalides felis; 0.1% in Water) | 2 hours Alive (ctenocephalides felis; 0.1% in Water) | 2 hours Dead (ctenocephalides felis; 0.1% in Water) | 20 hours Alive (ctenocephalides felis; 0.1% in Water) | 20 hours Dead (ctenocephalides felis; 0.1% in Water) | 5 Hours Alive (ctenocephalides felis; 1% in Acetone) | 5 Hours Dead (ctenocephalides felis; 1% in Acetone) | 2 hours Alive (ctenocephalides felis; 1% in Acetone) | 2 hours Dead (ctenocephalides felis; 1% in Acetone) | 20 hours Alive (ctenocephalides felis; 1% in Acetone) | 20 hours Dead (ctenocephalides felis; 1% in Acetone) | 5 Hours Alive (ctenocephalides felis; 1% in Water) | 5 Hours Dead (ctenocephalides felis; 1% in Water) | further results
CO[C@H]1CO[C@H]2[C@@H]1OC[C@H]2OC [ISDE - 1% (benign base), isosorbide dimethyl ether] |  |  |  |  |  |  |  |  |  |  |  |  |  |  |  |  |  |  |  |  | % Killed (fleas; after 24 hours): 0%; 2 hours Alive (fleas; number of fleas, 2 hours): 12; 2 hours Dead (fleas; number of fleas, 2 hours): 0; 24 hours Alive (fleas; number of fleas, 24 hours): 12; 24 hours Dead (fleas; number of fleas, 24 hours): 0
CCCCCCCCCC(=O)OC [Methyl decanoate] | 12 | 0 | 12 | 0 | 12 | 0 | 11 | 0 | 11 | 0 | 11 | 0 | 14 | 0 | 14 | 0 | 14 | 0 | 19 | 0 | 2 hours Alive (ctenocephalides felis; 1% in Water): 19; 2 hours Dead (ctenocephalides felis; 1% in Water): 0; 20 hours Alive (ctenocephalides felis; 1% in Water): 19; 20 hours Dead (ctenocephalides felis; 1% in Water): 0
CCCCCCCCCCCC(=O)OC [Methyl laurate, lauric acid methyl ester] | 15 | 0 | 15 | 0 | 15 | 0 | 15 | 0 | 15 | 0 | 15 | 0 | 0 | 13 | 0 | 13 | 0 | 13 | 11 | 0 | Mortality of the fleas (fleas; 0.1% in ethanol): 100%; Mortality of the fleas (fleas; 1% in ethanol): 100%; 2 hours Alive (ctenocephalides felis; 1% in Water): 11; 2 hours Dead (ctenocephalides felis; 1% in Water): 0; 20 hours Alive (ctenocephalides felis; 1% in Water): 11; 20 hours Dead (ctenocephalides felis; 1% in Water): 0
CCCCCCCCC(=O)OC [Methyl nonanoate] | 14 | 0 | 14 | 0 | 14 | 0 | 12 | 0 | 12 | 0 | 12 | 0 | 9 | 0 | 9 | 0 | 9 | 0 | 14 | 0 | 2 hours Alive (ctenocephalides felis; 1% in Water): 14; 2 hours Dead (ctenocephalides felis; 1% in Water): 0; 20 hours Alive (ctenocephalides felis; 1% in Water): 14; 20 hours Dead (ctenocephalides felis; 1% in Water): 0
CCCCCCCC(=O)OC [Methyl octanoate] | 16 | 0 | 16 | 0 | 16 | 0 | 10 | 0 | 10 | 0 | 10 | 0 | 8 | 0 | 8 | 0 | 8 | 0 | 5 | 0 | 2 hours Alive (ctenocephalides felis; 1% in Water): 5; 2 hours Dead (ctenocephalides felis; 1% in Water): 0; 20 hours Alive (ctenocephalides felis; 1% in Water): 5; 20 hours Dead (ctenocephalides felis; 1% in Water): 0
CCCCCCCCCCCC(=O)OCC [lauric acid ethyl ester] |  |  |  |  |  |  |  |  |  |  |  |  |  |  |  |  |  |  |  |  | Mortality of the fleas (fleas; 0.1% in ethanol): 100%; Mortality of the fleas (fleas; 1% in ethanol): 100%

From US9055745B2, “Compositions for internal and external insecticides, ovicides, repellents and wound healing” (Natureza, Inc., priority 2011, dated 2015)
